Measured values as given in ChEMBL document CHEMBL4028802, “DILIrank: the largest reference drug list ranked by the risk for developing drug-induced liver injury in humans” (Drug Discov Today, 2016).

What was measured:
[1] = species: Homo sapiens; assay: Liver toxicity in human assessed as induction of drug-induced liver injury by measuring verified drug-induced liver injury concern status
[2] = species: Homo sapiens; assay: Liver toxicity in human assessed as induction of drug-induced liver injury by measuring severity class index
For DILI severity class in this document: key of the grades not given here.

Compound | DILI_Concern [1] | DILI_severity_class [2]
CC(C)(S)[C@@H](N)C(=O)O [PENICILLAMINE] | Less-Dili-Concern | 2
CC1(C)S[C@@H]2[C@H](NC(=O)Cc3ccccc3)C(=O)N2[C@H]1C(=O)O [PENICILLIN G] | Less-Dili-Concern | 3
CC1(C)S[C@@H]2[C@H](NC(=O)COc3ccccc3)C(=O)N2[C@H]1C(=O)O [PENICILLIN V] | No-Dili-Concern | 0
CSCC[C@H](NC(=O)[C@H](Cc1c[nH]c2ccccc12)NC(=O)CCNC(=O)OC(C)(C)C)C(=O)N[C@@H](CC(=O)O)C(=O)N[C@@H](Cc1ccccc1)C(N)=O [PENTAGASTRIN] | No-Dili-Concern | 0
N=C(N)c1ccc(OCCCCCOc2ccc(C(=N)N)cc2)cc1 [PENTAMIDINE] | Less-Dili-Concern | 3
O=C(O)CN(CCN(CC(=O)O)CC(=O)O)CCN(CC(=O)O)CC(=O)O [PENTETIC ACID] | No-Dili-Concern | 0
CCCC(C)C1(CC)C(=O)NC(=O)NC1=O (centres undefined) [PENTOBARBITAL] | Ambiguous-Dili-Concern | 3
OC[C@H]1O[C@@H](n2cnc3c2NC=NC[C@H]3O)C[C@@H]1O [PENTOSTATIN] | Most-Dili-Concern | 3
CC(=O)CCCCn1c(=O)c2c(ncn2C)n(C)c1=O [PENTOXIFYLLINE] | Ambiguous-Dili-Concern | 5
CCCN1C[C@H](CSC)C[C@@H]2c3cccc4[nH]cc(c34)C[C@H]21 [PERGOLIDE] | Ambiguous-Dili-Concern | 3
C1CCC(C(CC2CCCCN2)C2CCCCC2)CC1 (centres undefined) [PERHEXILINE] | Most-Dili-Concern | 8
CCC[C@H](N[C@@H](C)C(=O)N1[C@H](C(=O)O)C[C@@H]2CCCC[C@@H]21)C(=O)OCC [PERINDOPRIL] | Ambiguous-Dili-Concern | 3
OCCN1CCN(CCCN2c3ccccc3Sc3ccc(Cl)cc32)CC1 [PERPHENAZINE] | Less-Dili-Concern | 3
C[C@H]1[C@H](c2ccccc2)OCCN1C [PHENDIMETRAZINE] | No-Dili-Concern | 0
NNCCc1ccccc1 [PHENELZINE] | Less-Dili-Concern | 3
CCC1(c2ccccc2)C(=O)NC(=O)NC1=O [PHENOBARBITAL] | Less-Dili-Concern | 3
CC(COc1ccccc1)N(CCCl)Cc1ccccc1 (centres undefined) [PHENOXYBENZAMINE] | No-Dili-Concern | 0
CC(COc1ccccc1)NN (centres undefined) [PHENOXYPROPAZINE] | Most-Dili-Concern | 8
CC(C)(N)Cc1ccccc1 [PHENTERMINE] | Less-Dili-Concern | 0

Compound | DILI_Concern [1] | DILI_severity_class [2]
Cc1ccc(N(CC2=NCCN2)c2cccc(O)c2)cc1 [PHENTOLAMINE] | No-Dili-Concern | 0
O=C1NC(=O)C(c2ccccc2)(c2ccccc2)N1 [PHENYTOIN] | Most-Dili-Concern | 8
CNC(=O)Oc1ccc2c(c1)[C@]1(C)CCN(C)[C@@H]1N2C [PHYSOSTIGMINE] | No-Dili-Concern | 0
CC1=C(C/C=C(\C)CCC[C@H](C)CCC[C@H](C)CCCC(C)C)C(=O)c2ccccc2C1=O [PHYTONADIONE] | No-Dili-Concern | 0
CC[C@@H]1C(=O)OC[C@@H]1Cc1cncn1C [PILOCARPINE] | Ambiguous-Dili-Concern | 3
O=c1[nH]c2ccccc2n1C1CCN(CCCC(c2ccc(F)cc2)c2ccc(F)cc2)CC1 [PIMOZIDE] | No-Dili-Concern | 0
CC(C)NCC(O)COc1cccc2[nH]ccc12 (centres undefined) [PINDOLOL] | No-Dili-Concern | 0
CCc1ccc(CCOc2ccc(CC3SC(=O)NC3=O)cc2)nc1 (centres undefined) [PIOGLITAZONE] | Less-Dili-Concern | 3
NC(=O)C1CCN(CCCN2c3ccccc3Sc3ccc(Cl)cc32)CC1 [PIPAMAZINE] | Most-Dili-Concern | 8
CCN1CCN(C(=O)N[C@@H](C(=O)N[C@@H]2C(=O)N3[C@@H]2SC(C)(C)[C@@H]3C(=O)O)c2ccccc2)C(=O)C1=O [PIPERACILLIN] | Ambiguous-Dili-Concern | 3
CN1C(C(=O)Nc2ccccn2)=C(O)c2ccccc2S1(=O)=O [PIROXICAM] | Less-Dili-Concern | 3
CC(C(=O)O)c1ccc(N2CC=CC2)c(Cl)c1 (centres undefined) [PIRPROFEN] | Most-Dili-Concern | 8
O=C(O)C[C@H](O)C[C@H](O)/C=C/c1c(C2CC2)nc2ccccc2c1-c1ccc(F)cc1 [PITAVASTATIN] | Ambiguous-Dili-Concern | 3
c1cc(CN2CCCNCCNCCCNCC2)ccc1CN1CCCNCCNCCCNCC1 [PLERIXAFOR] | No-Dili-Concern | 0
CN1C(CSCC(F)(F)F)Nc2cc(Cl)c(S(N)(=O)=O)cc2S1(=O)=O (centres undefined) [POLYTHIAZIDE] | Ambiguous-Dili-Concern | 2
CC[C@@H]([C@H](C)O)n1ncn(-c2ccc(N3CCN(c4ccc(OC[C@@H]5CO[C@@](Cn6cncn6)(c6ccc(F)cc6F)C5)cc4)CC3)cc2)c1=O [POSACONAZOLE] | Ambiguous-Dili-Concern | 8
C#CCC(Cc1cnc2nc(N)nc(N)c2n1)c1ccc(C(=O)N[C@@H](CCC(=O)O)C(=O)O)cc1 (some centres undefined) [PRALATREXATE] | Ambiguous-Dili-Concern | 3
C[n+]1ccccc1/C=N/O [PRALIDOXIME] | Ambiguous-Dili-Concern | 3
CCCN[C@H]1CCc2nc(N)sc2C1 [PRAMIPEXOLE] | Ambiguous-Dili-Concern | 2

Compound | DILI_Concern [1] | DILI_severity_class [2]
CC[C@H](C)[C@H](NC(=O)[C@@H]1CCCN1C(=O)CNC(=O)[C@H](Cc1ccccc1)NC(=O)[C@H](CC(N)=O)NC(=O)[C@H](CC(N)=O)NC(=O)[C@H](CO)NC(=O)[C@H](CO)NC(=O)[C@H](Cc1c[nH]cn1)NC(=O)[C@@H](NC(=O)[C@H](CC(C)C)NC(=O)[C@H](Cc1ccccc1)NC(=O)[C@H](CC(N)=O)NC(=O)[C@H](C)NC(=O)[C@H](CC(C)C)NC(=O)[C@H](CCCNC(=N)N)NC(=O)[C@H](CCC(N)=O)NC(=O)[C@@H](NC(=O)[C@H](C)NC(=O)[C@@H]1CSSC[C@H](NC(=O)[C@@H](N)CCCCN)C(=O)N[C@@H](CC(N)=O)C(=O)N[C@@H]([C@@H](C)O)C(=O)N[C@@H](C)C(=O)N[C@@H]([C@@H](C)O)C(=O)N1)[C@@H](C)O)C(C)C)C(=O)N[C@@H](CC(C)C)C(=O)N1CCC[C@H]1C(=O)N1CCC[C@H]1C(=O)N[C@H](C(=O)N[C@@H](CC(N)=O)C(=O)N[C@H](C(=O)NCC(=O)N[C@@H](CO)C(=O)N[C@@H](CC(N)=O)C(=O)N[C@H](C(=O)N[C@@H](Cc1ccc(O)cc1)C(N)=O)[C@@H](C)O)C(C)C)[C@@H](C)O [PRAMLINTIDE] | No-Dili-Concern | 0
CC(=O)Oc1cc2c(s1)CCN(C(C(=O)C1CC1)c1ccccc1F)C2.Cl (centres undefined) [PRASUGREL HYDROCHLORIDE] | Less-Dili-Concern | 0
CC[C@H](C)C(=O)O[C@H]1C[C@H](O)C=C2C=C[C@H](C)[C@H](CC[C@@H](O)C[C@@H](O)CC(=O)O)[C@H]21 [PRAVASTATIN] | Less-Dili-Concern | 3
COc1cc2nc(N3CCN(C(=O)c4ccco4)CC3)nc(N)c2cc1OC [PRAZOSIN] | Ambiguous-Dili-Concern | 3
C[C@]12C=CC(=O)C=C1CC[C@@H]1[C@@H]2[C@@H](O)C[C@@]2(C)[C@H]1CC[C@]2(O)C(=O)CO [PREDNISOLONE] | Less-Dili-Concern | 3
C[C@]12C=CC(=O)C=C1CC[C@@H]1[C@@H]2C(=O)C[C@@]2(C)[C@H]1CC[C@]2(O)C(=O)CO [PREDNISONE] | Less-Dili-Concern | 3
COc1cc(NC(C)CCCN)c2ncccc2c1 (centres undefined) [PRIMAQUINE] | No-Dili-Concern | 0
CCC1(c2ccccc2)C(=O)NCNC1=O [PRIMIDONE] | No-Dili-Concern | 0
CCCN(CCC)S(=O)(=O)c1ccc(C(=O)O)cc1 [PROBENECID] | Ambiguous-Dili-Concern | 6
CCN(CC)CCNC(=O)c1ccc(N)cc1 [PROCAINAMIDE] | Less-Dili-Concern | 4
CNNCc1ccc(C(=O)NC(C)C)cc1 [PROCARBAZINE] | Less-Dili-Concern | 3
CN1CCN(CCCN2c3ccccc3Sc3ccc(Cl)cc32)CC1 [PROCHLORPERAZINE] | Less-Dili-Concern | 2
OC(CCN1CCCC1)(c1ccccc1)C1CCCCC1 (centres undefined) [PROCYCLIDINE] | No-Dili-Concern | 0
CC(=O)[C@H]1CC[C@H]2[C@@H]3CCC4=CC(=O)CC[C@]4(C)[C@H]3CC[C@]12C [PROGESTERONE] | Less-Dili-Concern | 2
CC(CN1c2ccccc2Sc2ccccc21)N(C)C (centres undefined) [PROMETHAZINE] | Less-Dili-Concern | 5
CCCNCC(O)COc1ccccc1C(=O)CCc1ccccc1 (centres undefined) [PROPAFENONE] | Less-Dili-Concern | 3
CC(C)[N+](C)(CCOC(=O)C1c2ccccc2Oc2ccccc21)C(C)C [PROPANTHELINE] | No-Dili-Concern | 0
CC(C)c1cccc(C(C)C)c1O [PROPOFOL] | Less-Dili-Concern | 3
CCC(=O)O[C@](Cc1ccccc1)(c1ccccc1)[C@H](C)CN(C)C [PROPOXYPHENE] | Less-Dili-Concern | 3
